Source: patent publication US10202361B2, “Pyridazinones as herbicides” (E I DU PONT DE NEMOURS AND COMPANY, priority 2014, dated 2019)

What was measured:
Format in all cases: in vivo
[1] = tested on: canarygrass (Phalaris minor); assay: Test C postemergence greenhouse herbicide test
[2] = tested on: deadnettle (henbit deadnettle, Lamium amplexicaule); assay: Test C postemergence greenhouse herbicide test
[3] = tested on: surinam grass (Brachiaria decumbens); assay: Test E pre-/postemergence greenhouse herbicide test; conditions: Preemergence, scale 0 to 100
[4] = tested on: corn (Zea mays); assay: as above; conditions: scale 0 to 100
Procedure, shortened: (§1)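 Formulated test chemical (solvent mixture with surfactant) is applied preemergence to seeded silt loam and postemergence to plants at 1- to 4-leaf stage grown in peat-based medium. Greenhouse holding 14 to 21 d; response scored visually, 0 no effect to 100 complete control.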

[5] = tested on: crabgrass, Brazil (Brazilian crabgrass, Digitaria horizontalis); assay: as above; conditions: scale 0 to 100
Procedure, shortened: as §1

[6] = tested on: dayflower, VA (Virginia dayflower, Commelina virginica); assay: as above; conditions: scale 0 to 100
Procedure, shortened: as §1

[7] = tested on: foxtail, green (green foxtail, Setaria viridis); assay: as above; conditions: Preemergence, scale 0 to 100
Procedure, shortened: as §1

[8] = tested on: johnsongrass (Sorghum halepense); assay: as above; conditions: Preemergence, scale 0 to 100
Procedure, shortened: as §1

[9] = tested on: lambsquarters (Chenopodium album); assay: as above; conditions: Preemergence, scale 0 to 100
Procedure, shortened: as §1

[10] = tested on: smartweed (ladysthumb smartweed, Polygonum persicaria); assay: as above; conditions: scale 0 to 100
Procedure, shortened: as §1

[11] = tested on: soybean (Glycine max); assay: as above; conditions: scale 0 to 100
Procedure, shortened: as §1

[12] = tested on: waterhemp_RES1 (ALS & Triazine resistant common waterhemp, Amaranthus rudis); assay: Test E postemergence greenhouse herbicide test; conditions: scale 0 to 100
Protocol: (§2) At the same time, plants from these crop and weed species and also waterhemp_RES1, (ALS & Triazine resistant common waterhemp, Amaranthus rudis), and waterhemp_RES2, (ALS & HPPD resistant common waterhemp, Amaranthus rudis) were planted in pots containing Redi-Earth® planting medium (Scotts Company, 14111 Scottslawn Road, Marysville, Ohio 43041) comprising spaghnum peat moss, vermiculite, wetting agent and starter nutrients were treated with postemergence applications of test chemicals formulated in the same manner. Plants ranged in height from 2 to 18 cm for postemergence treatments (1- to 4-leaf stage). Treated plants and controls were maintained in a greenhouse for 14 to 21 d, after which time all species were compared to controls and visually evaluated. Plant response ratings, summarized in Table E, are based on a scale of 0 to 100 where 0 is no effect and 100 is complete control. A dash (-) response means no test result.

[13] = tested on: waterhemp_RES2 (ALS & HPPD resistant common waterhemp, Amaranthus rudis); assay: Test E postemergence greenhouse herbicide test; conditions: scale 0 to 100
Protocol: as §2

## Cc1cc(=O)n(-c2ccc(F)cc2)nc1Oc1ccnc(C(F)(F)F)c1 [Compound 14, 2-(4-fluorophenyl)-5-methyl-6-[[2-(trifluoromethyl)-4-pyridinyl]oxy]-3 (2H)-pyridazinone]
[1]; 31 g ai/ha
  Plant response rating: 5
[1]; 62 g ai/ha
  Plant response rating: 5
[1]; 125 g ai/ha
  Plant response rating: 10
[1]; 250 g ai/ha
  Plant response rating: 15
[2]; 31 g ai/ha
  Plant response rating: 85
[2]; 62 g ai/ha
  Plant response rating: 85
[2]; 125 g ai/ha
  Plant response rating: 85
[2]; 250 g ai/ha
  Plant response rating: 85

## COc1cc(=O)n(-c2ccc(C(F)(F)F)cc2)nc1Cc1ccnc(C(F)(F)F)c1 [Compound 16, 5-methoxy-2-[4-(trifluoromethyl)phenyl]-6-[[2-(trifluoromethyl)-4-pyridinyl]methyl]-3(2H)-pyridazinone]
[3]; 62 g ai/ha
  Plant response rating: Surinam Grass: 25
[3]; 125 g ai/ha
  Plant response rating: Surinam Grass: 40
[3]; 250 g ai/ha
  Plant response rating: Surinam Grass: 98
[4]; Postemergence, 62 g ai/ha
  Plant response rating: Corn: 30
[4]; Postemergence, 125 g ai/ha
  Plant response rating: Corn: 40
[4]; Postemergence, 250 g ai/ha
  Plant response rating: Corn: 50
[4]; Preemergence, 62 g ai/ha
  Plant response rating: Corn: 40
[4]; Preemergence, 125 g ai/ha
  Plant response rating: Corn: 40
[4]; Preemergence, 250 g ai/ha
  Plant response rating: Corn: 65
[5]; Postemergence, 62 g ai/ha
  Plant response rating: Crabgrass, Brazil: 20
[5]; Postemergence, 125 g ai/ha
  Plant response rating: Crabgrass, Brazil: 30
[5]; Postemergence, 250 g ai/ha
  Plant response rating: Crabgrass, Brazil: 50
[5]; Preemergence, 62 g ai/ha
  Plant response rating: Crabgrass, Brazil: 100
[5]; Preemergence, 125 g ai/ha
  Plant response rating: Crabgrass, Brazil: 100
[5]; Preemergence, 250 g ai/ha
  Plant response rating: Crabgrass, Brazil: 100
[6]; Postemergence, 62 g ai/ha
  Plant response rating: Dayflower, VA: 20
[6]; Postemergence, 125 g ai/ha
  Plant response rating: Dayflower, VA: 60
[6]; Postemergence, 250 g ai/ha
  Plant response rating: Dayflower, VA: 70
[6]; Preemergence, 62 g ai/ha
  Plant response rating: Dayflower, VA: 5
[6]; Preemergence, 125 g ai/ha
  Plant response rating: Dayflower, VA: 20
[6]; Preemergence, 250 g ai/ha
  Plant response rating: Dayflower, VA: 65
[7]; 62 g ai/ha
  Plant response rating: Foxtail, Green: 50
[7]; 125 g ai/ha
  Plant response rating: Foxtail, Green: 95
[7]; 250 g ai/ha
  Plant response rating: Foxtail, Green: 100
[8]; 62 g ai/ha
  Plant response rating: Johnsongrass: 35
[8]; 125 g ai/ha
  Plant response rating: Johnsongrass: 60
[8]; 250 g ai/ha
  Plant response rating: Johnsongrass: 60
[9]; 62 g ai/ha
  Plant response rating: Lambsquarters: 98
[9]; 125 g ai/ha
  Plant response rating: Lambsquarters: 98
[9]; 250 g ai/ha
  Plant response rating: Lambsquarters: 100
[10]; Postemergence, 62 g ai/ha
  Plant response rating: Smartweed: 40
[10]; Postemergence, 125 g ai/ha
  Plant response rating: Smartweed: 70
[10]; Postemergence, 250 g ai/ha
  Plant response rating: Smartweed: 70
[10]; Preemergence, 62 g ai/ha
  Plant response rating: Smartweed: 98
[10]; Preemergence, 125 g ai/ha
  Plant response rating: Smartweed: 98
[10]; Preemergence, 250 g ai/ha
  Plant response rating: Smartweed: 100
[11]; Postemergence, 62 g ai/ha
  Plant response rating: Soybean: 35
[11]; Postemergence, 125 g ai/ha
  Plant response rating: Soybean: 50
[11]; Postemergence, 250 g ai/ha
  Plant response rating: Soybean: 85
[11]; Preemergence, 62 g ai/ha
  Plant response rating: Soybean: 0
[11]; Preemergence, 125 g ai/ha
  Plant response rating: Soybean: 20
[11]; Preemergence, 250 g ai/ha
  Plant response rating: Soybean: 50
[12]; 62 g ai/ha
  Plant response rating: Waterhemp_RES1: 95
[12]; 125 g ai/ha
  Plant response rating: Waterhemp_RES1: 100
[12]; 250 g ai/ha
  Plant response rating: Waterhemp_RES1: 100
[13]; 62 g ai/ha
  Plant response rating: Waterhemp_RES2: 90
[13]; 125 g ai/ha
  Plant response rating: Waterhemp_RES2: 95
[13]; 250 g ai/ha
  Plant response rating: Waterhemp_RES2: 100
